Experimental data taken from patent publication US20230152314A1, “LIPOCALIN-2 ASSAY FOR INTESTINAL ADAPTATION” (THE JOHNS HOPKINS UNIVERSITY, priority 2020, published 2023).
“Also recorded” adds a separate entry of the source.

Columns and labels:
WT SBR mice = assay: I3C (AHR agonist) supplementation in SBR mice: weight gain; assay type: in vivo, mouse; settings: WT SBR mice vs DMSO-treated control, postoperative days 3-7, p=0.04 at day 7
Text: In one experiment, AHR agonists are studied in our SBR model. The purpose of this experiment is to study AHR activation via a dietary supplement, which has tremendous potential as a translational approach. Under our ACUC-approved protocol, we will perform a 75% SBR on the same four groups [n=12 mice in each group] of C57Bl/6J mice: WT, LCN2-/-, AHR-/- and AHR-/-LCN2-/-. Sham-operated WT, LCN2-/-, AHR-/- and AHR-/-LCN2-/- C57Bl/6J mice [n=12 mice in each group] will serve as controls. Mice will be randomized to receive either the AHR agonist, indole-3-carbinol […]) (Sigma, 17256, St Louis, Mo.) at a dose of 15-20 mg/kg, dissolved in DMSO, or DMSO alone mixed into the liquid diet. The rodent liquid diet containing […] will be maintained for the duration of the postoperative period. Control mice will receive DMSO only. Mice will be weighed daily. One week later, the mice will be anesthetized for tissue collection and analyses performed.

[1] = test system: WT SBR mice (75% SBR model of short bowel syndrome); assay: Rescue IL-22 therapy for SBR WT mice: body weight and villus length; assay type: in vivo, mouse
Experimental: Creation of a clinically relevant model of short bowel syndrome in the mouse. In our laboratory, we established the model previously described by Helmrath et al.^18 Briefly, the hair on the abdomen of the mouse was removed by depilatory creams, and the abdomen was scrubbed with three rounds of betadine, prior to making an incision. Through a 1.5 cm midline laparotomy, the small bowel was examined. The 75% SBR was performed by transecting 3 cm distal to the ligament of Treitz and 6 cm proximal to the cecum. The intervening proximal small bowel (approximately 18 cms) was removed. Intestinal continuity was restored with a primary end-to-end jejunoileal anastomosis using 8-0 Nylon suture. The sham operation (SHA) was performed by transecting the small bowel 6 cm proximal to the cecum and immediately creating a primary end-to-end ileoileal anastomosis. Subcutaneous closure was performed with a running absorbable 4-0 Vicryl suture. Cutaneous closure was completed by interrupted 4-0 silk sutures. All animals received 1 mL of saline subcutaneously before and immediately after procedure.
After surgery, mice were offered free access to water for the first 24 hours. Fresh rodent liquid diet was provided and body weight was measured daily. Bromodeoxyuridine (BrdU) (Invitrogen, 00-0103) was administered through intraperitoneal injection (ip) 24 hours before euthanasia. Intestinal permeability was evaluated with FITC-Dextran intestinal permeability assay as described below. Serum, intestinal issue, liver, and cecal content were collected after euthanasia.
Morphometric Analysis. The jejunum and ileum were fixed in 10% neutral buffered formalin for 24 hours. […] Villus length in jejunum and ileum was measured under light microscopy (EVOS FL Auto Imaging System). At least 30 well-oriented intact villi were counted per mouse.
Rescue IL-22 Therapy for SBR WT Mice. […] The relative abundance of Proteobacteria, Bacteroidetes, Firmicutes, Lactobacillus and Enterobacteriaceae of fecal microbiome and Reg3b and Reg3g genes in the intestine were assessed by q-PCR.

[2] = test system: Reg3b, Reg3g and Tnf-α genes in the intestine; assay: Rescue IL-22 therapy: transcriptional levels of intestinal genes by q-PCR; assay type: in vivo, mouse; settings: WT SBR mice
Experimental: (§1) Rescue IL-22 Therapy for SBR WT Mice. Following a 75% SBR, WT mice were treated daily for six days via intraperitoneal injections with either 100 μL PBS as control or 100 μL PBS containing 4 μg rmIL-22 (PeproTECH, 210-22) as treatment. At post-operative day (POD) 7, intestinal tissue and cecal contents were collected after euthanasia. The relative abundance of Proteobacteria, Bacteroidetes, Firmicutes, Lactobacillus and Enterobacteriaceae of fecal microbiome and Reg3b and Reg3g genes in the intestine were assessed by q-PCR.
RNA Extraction and Reverse Transcription. Total RNA from tissue was extracted according to the manufacturer's instructions (QIAGEN, RNeasy Mini Kit, 74106). Genomic DNA was eliminated from RNA, and total RNA (0.5 μg) was reverse transcribed to cDNA with QuantiTect Reverse Transcription Kit according to the manufacturer's protocol (QIAGEN, 205311, Germantown, Md., USA).
(§2) Quantitative real-time PCR. Gene quantification was carried out with iTap Universal SYBR Green Supermix (Bio-rad, 172-5124, Hercules, Calif., USA) on a CFX96 Touch Real-time PCR system (Bio-rad) according to the manufacturer's instructions and calculated with 2^−ΔΔCT method. Thermal cycling was performed at 95° C. for 5 min, followed by 40 cycles at 95° C. for 15 s, 60° C. 10s, 72° C. for 30 s. Primers for transcriptional levels of Lcn2, IL-6.

[3] = test system: Proteobacteria, Bacteroidetes, Firmicutes of fecal microbiome; assay: Rescue IL-22 therapy: relative abundance of fecal microbiome groups by q-PCR; assay type: in vivo, mouse; settings: WT SBR mice, POD 7, q-PCR
Experimental: as §1, §2

Th22 cells = assay: Th22 cell differentiation with and without LCN2, IL-22 ELISA of supernatant; assay type: cell-based, mouse; settings: rmLCN2 1 ug/mL, 5 days
Experimental: Naïve CD4^+ T Lymphocytes Isolation and Th22 cells Differentiation. We isolated naïve CD4+ T cells as previously described by Bedoya S K et al.^22 Briefly, splenic tissue was removed from 6-week old C57BL/6J male mice and ground into a single cell suspension under a sterile hood. Red blood cells (RBC) were removed by using ammonium-chloride-potassium (ACK) lysing buffer (Quality Biological, 118-156-101, Gaithersburg, Md., USA) at RT for 3 minutes. Naïve CD4+ T cells were isolated from total splenocyte by magnetic activated cell sorting (MACS) based on positive selection using CD4 (L3T4) MicroBeads (Miltenyi Biotec, 130-117-043, Bergisch-Gladbach, Germany) according to the manufacturer's instructions. The purity of naive CD4+ T cells was more than 97%, as measured by flow cytometry.
For Th22 cell differentiation, CD4+ T cells were stimulated in complete media (RPMI 1640 with 2 mM L-glutamine, 10% FBS, […] 1-ME, 100 U/ml penicillin-streptomycin) with plate-bound anti-CD3ε (Clone 145-2C11, 1 ug/mL, BD; 550275) and soluble anti-CD28 (Clone 37.51, 2 ug/ml, BD, 553295) for 5 days under polarizing condition for Th22 cells (IL-6 20 ng/mL, IL-β 10 ng/mL, TNF-α 10 ng/mL)^23 with and without mouse recombinant (rm) LCN2 (1 ug/mL, R&D, 1857-LC-050). Cell supernatant was collected for IL-22 ELISA analysis (Invitrogen, 88-7422-22) according to the manufacturer's instructions.

[4] = POD 7, compared to PBS-treated group
[5] = jejunum and colon, especially in the colon

OCc1c[nH]c2ccccc12 [I3C, indole-3-carbinol]
weight gain following SBR (WT SBR mice): increases; also recorded: significant increase

rmIL-22: recombinant mouse IL-22 (PeproTECH, 210-22), given intraperitoneally in PBS
body weight lost ([1]; POD 7, 4 μg rmIL-22 ip daily for six days): 7.5%
length of villi in ileum [1, 4]: no difference
length of villi in jejunum [1, 4]: significantly longer
Reg3b transcriptional level [2, 5]: robust increase
Reg3g transcriptional level [2, 5]: robust increase
transcriptional levels of Tnf-α ([2]; jejunum, inflammation): increased
relative abundance of Bacteroidetes [3]: increased
relative abundance of Firmicutes [3]: increased
relative abundance of Proteobacteria [3]: decreased

B1: LCN2: mouse recombinant (rm) LCN2 (R&D, 1857-LC-050) added to Th22 polarizing culture (protein, UniProt P11672 21-200, looked up)
Neutrophil …: QDSTQNLIPAPSLLTVPLQPDFRSDQFRGRWYVVGLAGNAVQKKTEGSFTMYSTIYELQENNSYNVTSILVRDQDQGCRYWIRTFVPSSRAGQFTLGNMHRYPQVQSYNVQVATTDYNQFAMVFFRKTSENKQYFKITLYGRTKELSPELKERFTRFAKSLGLKDDNIIFSVPTDQCIDN
levels of IL-22 protein expression from Th22 cells (Th22 cells): significantly decreased
